Laboratory results taken from US20120135078A1, “ANGINA TREATMENT” (University of Dindee, priority 2009, published 2012).

Key:
angina patients = details: references 1-7; cited from earlier work
[1] = test system: patients with chronic stable angina; assay: Treadmill exercise tolerance test (full Bruce protocol), randomised double-blind placebo-controlled cross-over study; format: in vivo, human
Description: The trial was carried out at Ninewells Hospital, UK. It was approved by the Fife, Forth Valley and Tayside Research Ethics Committee and was conducted in accordance with the Declaration of Helsinki. Signed, written informed consent was obtained from each participant.
Individuals aged 18 to 85 years were eligible if they had angiographically documented coronary artery disease, a positive exercise tolerance test (ETT) and a history of symptoms of chronic, stable, effort-induced angina for ≧2 months. Concomitant antianginal medication was allowed.
Exclusion criteria included myocardial infarction ≧2 months, coronary revascularization (percutaneous or CABG) ≧6 months, Left Ventricular Ejection Fraction <45%, estimated GFR <45 ml/min, significant valvular pathology, already on allopurinol, atrial arrhythmias or ECG abnormalities interfering with ST-segment interpretation.
Eligible participants had to manifest ischaemia (ST depression ≧1mm compared to resting ECG) on both visits with a between visit difference in time to ST depression of less than 15%. Otherwise, a third ETT was performed and there had to be a difference of less than 15% between the second and third test.
(§1) Eligible participants were then randomised to either allopurinol up to 300 mg BID or matching placebo for 6 weeks. The dose of allopurinol started at 100 mg OD for the first week, 300 mg OD for the second week and 300 mg BID for the remaining treatment period.
The ECG analysis was performed by two independent observers who were both blind to the treatments. The results of each assessment were virtually identical.
(§2) A p value <0.05 was considered significant.

[2] = Serum analysis (biochemical data) in the cross-over study; format: in vivo, human; details: mean ± SD; after allopurinol treatment; p<0.001 vs baseline and placebo
Description: as §1, §2

[3] = cited from earlier work
[4] = test system: patients with chronic stable angina; assay: Haemodynamic responses during exercise testing
[5] = median, after 6 weeks allopurinol up to 300 mg BID (600 mg/day) added to existing anti-anginal medication
[6] = mean ± SD, Stage 1 of Bruce protocol

COc1cc2c(cc1OC)CC(=O)N(CCCN(C)C[C@H]1Cc3cc(OC)c(OC)cc31)CC2 [ivabradine]
increase in time to ST depression, comparable published figures (angina patients): 46 s
increase in time to ST depression, comparable published figures (percent) (angina patients): 13.5%

Oc1ncnc2[nH]ncc12 [Allopurinol, 1,5-dihydro-4H-pyrazolo[3,4-d]pyrimidin-4-one]
absolute increase in median time to ST depression ([1]; allopurinol vs baseline): 66 s
increase in median time to ST depression (percent) ([1]; allopurinol vs baseline): 28%
median exercise time higher on allopurinol than on placebo or baseline ([1]; difference of medians): 86 to 92 s
median exercise time higher on allopurinol than on placebo or baseline (percent) ([1]; difference of medians): 30%
increase in time to ST depression by geometric mean ([1]; geometric mean): 22%
Time to ST Depression [1, 5]: 298 s
Total Exercise Time [1, 5]: 393 s
Time to Symptoms ([1]; median, after 6 weeks allopurinol up to 300 mg BID added to existing anti-anginal medication): 304 s
serum uric acid [2]: 0.14 ± 0.05 mmol/L
solubility in chloroform and in ether ([3]; chloroform, ether): practically insoluble
solubility in dilute solutions of alkali hydroxides ([3]; dilute solutions of alkali hydroxides): dissolves
solubility in water and alcohol ([3]; water and alcohol): only slightly soluble
systolic blood pressure change at the end of the first stage of the Bruce protocol ([4]; change from baseline, p=0.026 vs placebo): −6.1 mmHg
HR Stage 1 [4, 6]: 95.6 ± 13.5 bpm
RPP (Rate Pressure Product) Stage 1 [4, 6]: 12756 ± 2798 bpm · mmHg
dBP Stage 1 [4, 6]: 71.7 ± 10.1 mmhg
sBP Stage 1 [4, 6]: 135.5 ± 19.3 mmHg
HR Peak exercise ([4]; mean ± SD, peak exercise): 118.5 ± 15.2 bpm
RPP (Rate Pressure Product) Peak Exercise ([4]; mean ± SD, peak exercise): 18842 ± 3791 bpm · mmHg
dBP Peak Exercise ([4]; mean ± SD, peak exercise): 75.4 ± 11.9 mmhg
sBP Peak exercise ([4]; mean ± SD, peak exercise): 158.7 ± 22.4 mmHg
HR Resting ([4]; mean ± SD, resting): 63.8 ± 8.6 bpm
RPP (Rate Pressure Product) Resting ([4]; mean ± SD, resting): 7910 ± 1577 bpm · mmHg
dBP Resting ([4]; mean ± SD, resting): 72.2 ± 9.9 mmhg
sBP Resting ([4]; mean ± SD, resting): 123.7 ± 16.2 mmHg

COc1ccccc1OCC(O)CN1CCN(CC(=O)Nc2c(C)cccc2C)CC1 (stereo not shown) [ranolazine]
increase in time to ST depression, comparable published figures (angina patients): around 50 seconds
increase in time to ST depression, comparable published figures (percent) (angina patients): 15%

CC(C)NCC(O)COc1ccc(CC(N)=O)cc1 (stereo not shown) [atenolol]
increase in time to ST depression, comparable published figures (angina patients): around 50 seconds
increase in time to ST depression, comparable published figures (percent) (angina patients): 15%
